According to patent US6967215B2, “Tetrahydrocarbazoles, a process for the preparation of those compounds, and the use thereof” (Ciba Specialty Chemicals Corporation, priority 2000, dated 2005):

Key:
[1] = tested on: Staphylococcus hominis DMS 20328; test: MIC, microtitre dilution test (growth by optical density at 620 nm); format: cell-based; conditions: Table 2, Staphylococcus hominis DMS 20328
Procedure: (§1) Casein/soybean flour peptone bouillon for the preparation of pre-cultures of the test bacteria and yeast.
(§2) The test substances are predissolved in dimethyl sulfoxide (DMSO) and tested in a dilution series of 1:2.
(§3) Bacteria and yeast are cultured overnight in CASO bouillon, the mould is cultured overnight on mycological slant agar, and washed off with 10 ml of 0.85% sodium chloride solution (+0.1% TritonX-100).
(§4) All the test organisms are adjusted to an organism count of 1-5×10^6 CFU/ml using 0.85% sodium chloride solution.
(§5) The test substances are pre-pipetted into microtitre plates in an amount of 8 μl per well.
(§6) Pre-diluted organism suspensions are diluted 1:100 in CASO bouillon (bacteria and yeast) or Sabouraud 2% glucose bouillon (mould) and are added in an amount of 192 μl per well to the test substances.
(§7) The test batches are incubated for 48 hours at 37° C. (bacteria and yeast) or for 5 days at 28° C. (mould).
(§8) After incubation, the growth is evaluated by reference to the turbidity of the test batches (optical density) at 620 nm in a microplate reader.
(§9) The minimum inhibitory concentration (MIC value) is the concentration of substance at which (compared with the growth of the control) an appreciable inhibition of growth (≦20% growth) of the test organisms is ascertained.
(§10) One microtitre plate is used for each test organism and substance concentration. All the substances are tested in duplicate.

[2] = tested on: Escherichia coli NCTC 8196; test: as above; format: cell-based; conditions: Table 2, Escherichia coli
Procedure: as §1, §2, §3, §4, §5, §6, §7, §8, §9, §10

| MIC [ppm] S. hominis [1] | MIC [ppm] E. coli [2] | MIC ([1]; DMS20328, read-out: MIC [ppm] S. hominis) | MIC ([2]; NCTC8196, read-out: MIC [ppm] E. coli) | Structure (SMILES) |
| --- | --- | --- | --- | --- |
| >120 ppm | >120 ppm | – | – | CCOC(=O)N1CCC2c3c([nH]c4ccc(Br)cc34)C3C(=O)NC(=O)C3C2C1 (centres unmarked) [Compound 68] |
| 60 ppm | >120 ppm | – | – | O=C1NC(=O)C2C1c1[nH]c3ccc(Br)cc3c1C1CCCCCCC12 (centres unmarked) [Compound 73] |
| 60 ppm | >120 ppm | – | – | CCc1cccc2c3c([nH]c12)C1C(=O)NC(=O)C1C1CCCCC31 (centres unmarked) [Compound 74] |
| 30 ppm | >120 ppm | – | – | CCc1cccc2c3c([nH]c12)C1C(=O)NC(=O)C1C1CCCC31 (centres unmarked) [Compound 75] |
| 15 ppm | >120 ppm | – | – | CCc1cccc2c3c([nH]c12)C1C(=O)NC(=O)C1C1CCCCCC31 (centres unmarked) [Compound 77] |
| >120 ppm | >120 ppm | – | – | CCCCCCC1CCC2C3C(=O)NC(=O)C3c3[nH]c4c(CC)cccc4c3C12 (centres unmarked) [Compound 83] |
| 7.5 ppm | >120 ppm | – | – | CCc1cccc2c3c([nH]c12)C1C(=O)NC(=O)C1C1CCCCCCC31 (centres unmarked) [Compound 89] |
| >120 ppm | >120 ppm | – | – | CCc1cccc2c3c([nH]c12)C1C(=O)NC(=O)C1C1C3CC(C)(C)CC1(C)C (centres unmarked) [Compound 90] |
| >120 ppm | >120 ppm | – | – | COc1ccc2[nH]c3c(c2c1)C1CCCCC1C1C(=O)NC(=O)C31 (centres unmarked) [Compound 91] |
| >120 ppm | >120 ppm | – | – | COc1ccc2[nH]c3c(c2c1)C1CCCC1C1C(=O)NC(=O)C31 (centres unmarked) [Compound 92] |
| >120 ppm | >120 ppm | – | – | COc1ccc2[nH]c3c(c2c1)C1CCCCCC1C1C(=O)NC(=O)C31 (centres unmarked) [Compound 94] |
| >120 ppm | >120 ppm | – | – | CCCC1CCC2c3c([nH]c4ccc(OC)cc34)C3C(=O)NC(=O)C3C2C1 (centres unmarked) [Compound 101] |
| 60 ppm | >120 ppm | – | – | CCC(C)(C)C1CCC2c3c([nH]c4ccc(OC)cc34)C3C(=O)NC(=O)C3C2C1 (centres unmarked) [Compound 102] |
| >120 ppm | >120 ppm | – | – | CCN1CCC2c3c([nH]c4ccc(OC)cc34)C3C(=O)NC(=O)C3C2C1 (centres unmarked) [Compound 103] |
| >120 ppm | >120 ppm | – | – | COc1ccc2[nH]c3c(c2c1)C1CCN(Cc2ccccc2)CC1C1C(=O)NC(=O)C31 (centres unmarked) [Compound 104] |
| >120 ppm | >120 ppm | – | – | COc1ccc2[nH]c3c(c2c1)C1CCN(C)CC1C1C(=O)NC(=O)C31 (centres unmarked) [Compound 105] |
| 120 ppm | >120 ppm | – | – | COc1ccc2[nH]c3c(c2c1)C1CCCCCCC1C1C(=O)NC(=O)C31 (centres unmarked) [Compound 107] |
| >120 ppm | >120 ppm | – | – | COc1ccc2[nH]c3c(c2c1)C1CC(C)(C)CC(C)(C)C1C1C(=O)NC(=O)C31 (centres unmarked) [Compound 108] |
| 60 ppm | >120 ppm | – | – | CN1C(=O)C2c3[nH]c4ccccc4c3C3CCC(C(C)(C)C)CC3C2C1=O (centres unmarked) [Compound 111] |
| >120 ppm | >120 ppm | – | – | CN1C(=O)C2c3[nH]c4ccccc4c3C3CC(C)(C)NC(C)(C)C3C2C1=O (centres unmarked) [Compound 113] |
| >120 ppm | >120 ppm | – | – | CCCN1CCC2c3c([nH]c4ccccc34)C3C(=O)N(C)C(=O)C3C2C1 (centres unmarked) [Compound 114] |
| 60 ppm | >120 ppm | – | – | CCOC(=O)N1CCC2c3c([nH]c4ccccc34)C3C(=O)N(C)C(=O)C3C2C1 (centres unmarked) [Compound 115] |

| MIC [ppm] S. hominis [1] | MIC [ppm] E. coli [2] | MIC ([1]; DMS20328, read-out: MIC [ppm] S. hominis) | MIC ([2]; NCTC8196, read-out: MIC [ppm] E. coli) | Structure (SMILES) |
| --- | --- | --- | --- | --- |
| 120 ppm | >120 ppm | – | – | CC(C)N1CCC2c3c([nH]c4ccccc34)C3C(=O)N(C)C(=O)C3C2C1 (centres unmarked) [Compound 116] |
| – | – | > 120 µg/mL | > 120 µg/mL | CC1CCC2C(C1)c1c([nH]c3ccccc13)C1C(=O)N(C)C(=O)C12 (centres unmarked) [Compound 117] |
| >120 ppm | >120 ppm | – | – | CCCC1CCC2c3c([nH]c4ccccc34)C3C(=O)N(C)C(=O)C3C2C1 (centres unmarked) [Compound 119] |
| 30 ppm | >120 ppm | – | – | CCC(C)(C)C1CCC2c3c([nH]c4ccccc34)C3C(=O)N(C)C(=O)C3C2C1 (centres unmarked) [Compound 120] |
| >120 ppm | >120 ppm | – | – | CCN1CCC2c3c([nH]c4ccccc34)C3C(=O)N(C)C(=O)C3C2C1 (centres unmarked) [Compound 121] |
| >120 ppm | >120 ppm | – | – | CN1C(=O)C2c3[nH]c4ccccc4c3C3CCN(Cc4ccccc4)CC3C2C1=O (centres unmarked) [Compound 122] |
| >120 ppm | 120 ppm | – | – | CN1CCC2c3c([nH]c4ccccc34)C3C(=O)N(C)C(=O)C3C2C1 (centres unmarked) [Compound 123] |
| >120 ppm | >120 ppm | – | – | CN1C(=O)C2c3[nH]c4ccccc4c3C3CCCCCCC3C2C1=O (centres unmarked) [Compound 125] |
| >120 ppm | >120 ppm | – | – | CN1C(=O)C2c3[nH]c4ccccc4c3C3CC(C)(C)CC(C)(C)C3C2C1=O (centres unmarked) [Compound 126] |
| >120 ppm | >120 ppm | – | – | CN1C(=O)C2c3[nH]c4ccc(Br)cc4c3C3CCC(C(C)(C)C)CC3C2C1=O (centres unmarked) [Compound 129] |
| 15 ppm | >120 ppm | – | – | CN1C(=O)C2c3[nH]c4ccc(Br)cc4c3C3CCCCCC3C2C1=O (centres unmarked) [Compound 130] |
| 120 ppm | >120 ppm | – | – | CCc1cccc2c3c([nH]c12)C1C(=O)N(C)C(=O)C1C1CCCCCCC31 (centres unmarked) [Compound 162] |
| >120 ppm | >120 ppm | – | – | COc1ccc2[nH]c3c(c2c1)C1CCCCC1C1C(=O)N(C)C(=O)C31 (centres unmarked) [Compound 164] |
| 120 ppm | >120 ppm | – | – | COc1ccc2[nH]c3c(c2c1)C1CCCC1C1C(=O)N(C)C(=O)C31 (centres unmarked) [Compound 165] |
| >120 ppm | >120 ppm | – | – | COc1ccc2[nH]c3c(c2c1)C1CCC(C(C)(C)C)CC1C1C(=O)N(C)C(=O)C31 (centres unmarked) [Compound 166] |
| >120 ppm | >120 ppm | – | – | COc1ccc2[nH]c3c(c2c1)C1CCCCCC1C1C(=O)N(C)C(=O)C31 (centres unmarked) [Compound 167] |
| >120 ppm | >120 ppm | – | – | COc1ccc2[nH]c3c(c2c1)C1CC(C)(C)NC(C)(C)C1C1C(=O)N(C)C(=O)C31 (centres unmarked) [Compound 168] |
| >120 ppm | >120 ppm | – | – | CCCN1CCC2c3c([nH]c4ccc(OC)cc34)C3C(=O)N(C)C(=O)C3C2C1 (centres unmarked) [Compound 169] |
| >120 ppm | >120 ppm | – | – | CCOC(=O)N1CCC2c3c([nH]c4ccc(OC)cc34)C3C(=O)N(C)C(=O)C3C2C1 (centres unmarked) [Compound 170] |
| >120 ppm | >120 ppm | – | – | COc1ccc2[nH]c3c(c2c1)C1CCN(C(C)C)CC1C1C(=O)N(C)C(=O)C31 (centres unmarked) [Compound 171] |
| >120 ppm | >120 ppm | – | – | COc1ccc2[nH]c3c(c2c1)C1CC(C)CCC1C1C(=O)N(C)C(=O)C31 (centres unmarked) [Compound 172] |
